# Target: vchNADK (Vibrio cholerae, UniProt Q9KTP8, K2E/N76T)
smiles,measurement,value
NC(=O)c1ccc[n+]([C@@H]2O[C@H](COP(=O)(O)OP(=O)(O)OC[C@H]3O[C@@H](n4cnc5c(N)ncnc54)[C@H](OP(=O)(O)O)[C@@H]3O)[C@@H](O)[C@H]2O)c1 [NADP^+],% residual activity at 0.20 mM,39%
